Values of other authors, collected in patent publication US10937641B2, “MALDI mass spectrometry method” (BiosparQ B.V., priority 2017, dated 2021).
In brackets after ≈: the same amount, converted by molar mass.

Conditions: solubility defined at room temperature as intrinsic solubility

SMILES: N#CC(=Cc1ccc(O)cc1)C(=O)O [αCHCA, α-cyano-4-hydroxycinnamic acid]
- solubility in water: 6000 µg/mL (≈ 31.7 mM)
